Like-named read-outs stand apart in the source and are kept apart here.
Columns and labels:
P493-6 (myc "on") cells = assay: Cell Proliferation Assay; assay type: cell-based; settings: P493-6, 72 h, read-out: Cell prolif P493 72 h IC50, P493-6 cells, 72 h
Summary of the method: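 P493-6 cells with myc on, 10,000 per well in RPMI/10% FBS, exposed to serially diluted compound (0.5% DMSO final) for 72 h at 37 °C, 5% CO2. Antiproliferative effect read by Cell Titer Glo luminescence or Viacount FACS viability count.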

[1] = target: T1, recombinant form of Glutaminase 1 (GAC) (Homo sapiens, UniProt O94925); assay: Recombinant Enzyme Assay - Time Dependence (60 min preincubation); assay type: biochemical
T1 sequence (O94925 137-598 isoform O94925-3 limits assumed): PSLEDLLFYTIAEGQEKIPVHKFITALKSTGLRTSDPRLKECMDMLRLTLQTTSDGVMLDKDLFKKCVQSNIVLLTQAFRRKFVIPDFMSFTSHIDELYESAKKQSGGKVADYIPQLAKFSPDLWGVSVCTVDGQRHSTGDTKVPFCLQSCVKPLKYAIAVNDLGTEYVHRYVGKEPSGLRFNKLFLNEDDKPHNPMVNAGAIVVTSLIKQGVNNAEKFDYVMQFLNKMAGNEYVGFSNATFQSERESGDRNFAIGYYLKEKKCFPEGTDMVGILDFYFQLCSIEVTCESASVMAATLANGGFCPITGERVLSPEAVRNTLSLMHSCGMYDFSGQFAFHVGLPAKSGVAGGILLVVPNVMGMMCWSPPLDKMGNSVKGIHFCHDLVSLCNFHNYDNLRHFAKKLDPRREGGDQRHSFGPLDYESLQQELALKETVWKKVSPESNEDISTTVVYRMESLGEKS
Procedure: The enzyme/compound mix was sealed with sealing foil (USA Scientific) and allowed to incubate, with mild agitation, for 60 minutes at 20° C. Enzymatic reaction was started with the addition of 50 μL of substrate solution (50 mM Tris-HCl pH 8.0, 0.2 mM EDTA, 150 mM K2HPO4, 0.1 mg/ml BSA, 1 mM DTT, 20 mM L-glutamine, 2 mM NAD^+, and 10 ppm antifoam) and read in a Molecular Devices M5 plate reader at 20° C. The plate reader was configured to read absorbance (=340 nm) in kinetic mode for 15 minutes. Data was recorded as milli-absorbance units per minute and slopes were compared to a control compound and a DMSO-only control on the same plate. Compounds with slopes less than the DMSO control were considered inhibitors and plate variability was assessed using the control compound.

[2] = read-out: GAC Delta N2 IC50 60 min preinc

SMILES | IC50 (P493-6 (myc "on") cells) | IC50 [1, 2] | IC50 [1]
COc1ccc(CC(=O)Nc2nnc(CCCCc3ccc(NC(=O)Cc4ccccc4)nn3)s2)cc1C [Compound 550] | 36 nM | 5 nM | 
O=C(Cc1ccccc1)Nc1ccc(CCCCc2nnc(NC(=O)Cc3cccc(CNC(=O)C(O)C(F)(F)F)c3)s2)nn1 (stereo not shown) [Compound 577] | 34 nM | 4 nM | 
O=C(Cc1ccccc1)Nc1ccc(CCCCc2nnc(NC(=O)Cc3ccc(F)c(O)c3)s2)nn1 [Compound 538] | 30 nM | 4 nM | 
CC(NC(=O)OC(C)(C)C)c1cccc(CC(=O)Nc2ccc(CCCCc3nnc(NC(=O)Cc4ccccc4)s3)nn2)c1 (stereo not shown) [Compound 543] | 5 nM | 4 nM | 
COC(=O)NCc1cccc(CC(=O)Nc2ccc(CCCCc3nnc(NC(=O)C(C)c4ccccc4)s3)nn2)c1 (stereo not shown) [Compound 553] | 19 nM | 5 nM | 
CC(C(=O)NCc1cccc(CC(=O)Nc2nnc(CCCCc3ccc(NC(=O)Cc4ccccc4)nn3)s2)c1)c1ccc(O)cc1 (stereo not shown) [Compound 576] | 13 nM | 3 nM | 
CS(=O)(=O)CCCOc1cccc(CC(=O)Nc2nnc(CCCCc3ccc(NC(=O)Cc4ccccc4)nn3)s2)c1 [Compound 583] | 42 nM | 5 nM | 
NCc1cccc(CC(=O)Nc2nnc(CCCCc3ccc(NC(=O)C(O)c4cccc(Cl)c4)nn3)s2)c1 (stereo not shown) [Compound 423] | 42 nM | 22 nM | 
CC(C)(O)CNC(=O)Cc1cccc(CC(=O)Nc2nnc(CCCCc3ccc(NC(=O)Cc4ccccc4)nn3)s2)c1 [Compound 514] | 63 nM | 9 nM | 
CCOC(=O)Cc1cccc(CC(=O)Nc2nnc(CCCCc3ccc(NC(=O)Cc4ccccc4)nn3)s2)c1 [Compound 456] | 24 nM | 3 nM | 
CCOC(=O)NCc1cccc(CC(=O)Nc2ccc(CCCCc3nnc(NC(=O)C(OC)c4ccccc4)s3)nn2)c1 (stereo not shown) [Compound 609] | 14 nM | 9 nM | 
CC(N)c1cc(CC(=O)Nc2nnc(CCCCc3ccc(NC(=O)Cc4ccccc4)nn3)s2)ccc1F (stereo not shown) [Compound 655] | 350 nM | 19 nM | 
O=C(Cc1ccccc1)Nc1ccc(CCCCc2nnc(NC(=O)Cc3cccs3)s2)nn1 [Compound 503] | 150 nM | 8 nM | 
CC(O)c1cccc(CC(=O)Nc2ccc(CCCCc3nnc(NC(=O)C(C)c4ccccc4)s3)nn2)c1 (stereo not shown) [Compound 595] | 59 nM | 7 nM | 
O=C(Cc1ccccc1)Nc1ccc(CCCCc2nnc(NC(=O)Cc3cc(F)cc(C(F)(F)F)c3)s2)nn1 [Compound 414] | 58 nM | 10 nM | 
CCOC(=O)c1ccc(CC(=O)Nc2nnc(CCCCc3ccc(NC(=O)Cc4ccccc4)nn3)s2)cc1OCC [Compound 588] | 270 nM | 8 nM | 
O=C(Cc1ccccc1)Nc1ccc(CCCCc2nnc(NC(=O)Cc3cccc(OC(F)(F)F)c3)s2)nn1 [Compound 413] | 45 nM | 7 nM | 
CC(C)N(C)C(=O)Cc1cccc(CC(=O)Nc2nnc(CCCCc3ccc(NC(=O)Cc4ccccc4)nn3)s2)c1 [Compound 498] | 17 nM | 3 nM | 
O=C(Cc1ccccc1)Nc1ccc(CCCCc2nnc(NC(=O)Cc3cccc(OC4COC(c5ccccc5)OC4)c3)s2)nn1 (stereo not shown) [Compound 506] | 170 nM | 10 nM | 
CCCNC(=O)Cc1cccc(CC(=O)Nc2nnc(CCCCc3ccc(NC(=O)Cc4ccccc4)nn3)s2)c1 [Compound 497] | 32 nM | 4 nM | 
CCCCS(=O)(=O)Cc1cccc(CC(=O)Nc2ccc(CCCCc3nnc(NC(=O)Cc4ccccc4)s3)nn2)c1 [Compound 645] | 15 nM | 2 nM | 
CC(=O)Nc1ccc(CCCCc2nnc(NC(=O)Cc3cccc(CNC(=O)Cc4ccccc4)c3)s2)nn1 [Compound 462] | 53 nM | 6 nM | 
CC(C)(C)OC(=O)NC(C)(C)c1cccc(CC(=O)Nc2ccc(CCCCc3nnc(NC(=O)Cc4ccccc4)s3)nn2)c1 [Compound 631] | 6 nM | 5 nM | 
CC1(C)OCC(C)(C(=O)NCc2cccc(CC(=O)Nc3nnc(CCCCc4ccc(NC(=O)Cc5ccccc5)nn4)s3)c2)CO1 [Compound 580] | 13 nM | 5 nM | 
COc1cccc(CC(=O)Nc2ccc(CCCCc3nnc(NC(=O)Cc4cccc(OC(F)(F)F)c4)s3)nn2)c1 [Compound 617] | 40 nM | 5 nM | 

SMILES | IC50 (P493-6 (myc "on") cells) | IC50 [1, 2] | IC50 [1]
CN(C)CC(=O)Nc1ccc(CC(=O)Nc2nnc(CCCCc3ccc(NC(=O)Cc4ccccc4)nn3)s2)cc1 [Compound 430] | 27 nM | 9 nM | 
CC(=O)N(C)Cc1cccc(CC(=O)Nc2nnc(CCCCc3ccc(NC(=O)Cc4ccccc4)nn3)s2)c1 [Compound 445] | 22 nM | 4 nM | 
COc1cccc(CC(=O)Nc2nnc(CCCCc3ccc(NC(=O)Cc4ccccc4)nn3)s2)c1OC [Compound 397] | 41 nM | 8 nM | 
NCCc1cccc(CC(=O)Nc2nnc(CCCCc3ccc(NC(=O)Cc4ccccc4)nn3)s2)c1 [Compound 441] | 180 nM | 11 nM | 
CCN(C)C(=O)Cc1cccc(CC(=O)Nc2nnc(CCCCc3ccc(NC(=O)Cc4ccccc4)nn3)s2)c1 [Compound 486] | 24 nM | 4 nM | 
O=C(CC(O)C(F)(F)F)NCc1cccc(CC(=O)Nc2nnc(CCCCc3ccc(NC(=O)Cc4ccccc4)nn3)s2)c1 (stereo not shown) [Compound 578] | 22 nM | 4 nM | 
O=C(Cc1cccc(Cn2cccn2)c1)Nc1ccc(CCCCc2nnc(NC(=O)Cc3ccccc3)s2)nn1 [Compound 500] | 29 nM | 4 nM | 
O=C(Cc1ccccc1)Nc1ccc(CCCCc2nnc(NC(=O)Cc3cccc(CCNC(=O)c4ccccc4)c3)s2)nn1 [Compound 455] | 12 nM | 3 nM | 
Nc1ccc(CCCCc2nnc(NC(=O)Cc3cccc(CNC(=O)c4ccccc4)c3)s2)nn1 [Compound 463] | 960 nM | 52 nM | 
O=C(Cc1ccccc1)Nc1ccc(CCCCc2nnc(NC(=O)Cc3cccc(OCCCO)c3)s2)nn1 [Compound 519] | 59 nM | 9 nM | 
CC(C)(N)c1cccc(CC(=O)Nc2nnc(CCCCc3ccc(NC(=O)Cc4ccccc4)nn3)s2)c1 [Compound 632] | 200 nM |  | 10 nM
O=C(Cc1cccc(OCC(F)(F)F)c1)Nc1ccc(CCCCc2nnc(NC(=O)Cc3ccccc3)s2)nn1 [Compound 667] | 110 nM | 4 nM | 
CCNC(=O)Nc1nnc(CCCCc2ccc(NC(=O)Cc3ccccc3)nn2)s1 [Compound 418] | 320 nM | 140 nM | 
CN(C)CC(=O)Nc1cccc(CC(=O)Nc2nnc(CCCCc3ccc(NC(=O)Cc4ccccc4)nn3)s2)c1 [Compound 457] | 110 nM | 9 nM | 
CC1(C)CCN(C(=O)Cc2cccc(CC(=O)Nc3nnc(CCCCc4ccc(NC(=O)Cc5ccccc5)nn4)s3)c2)C1 [Compound 481] | 12 nM | 4 nM | 
O=C(Cc1ccccc1)Nc1ccc(CCCCc2nnc(NC(=O)Cc3cccc(CNC(=O)c4ccc(Br)nn4)c3)s2)nn1 [Compound 475] | 3 nM | 2 nM | 
CC(C)CNC(=O)Cc1cccc(CC(=O)Nc2ccc(CCCCc3nnc(NC(=O)Cc4ccccc4)s3)nn2)c1 [Compound 517] | 46 nM |  | 3 nM
CC(C)(C)OC(=O)N1Cc2cccc(CC(=O)Nc3nnc(CCCCc4ccc(NC(=O)Cc5ccccc5)nn4)s3)c2C1 [Compound 608] | 37 nM | 7 nM | 
COc1ccccc1CC(=O)Nc1nnc(CCCCc2ccc(NC(=O)Cc3ccccc3)nn2)s1 [Compound 469] | 49 nM | 7 nM | 
CC(=O)Nc1cccc(CC(=O)Nc2nnc(CCCCc3ccc(NC(=O)Cc4ccccc4)nn3)s2)c1 [Compound 451] | 56 nM | 3 nM | 
CC(C)(C)OC(=O)NC(C)(C)c1cccc(CC(=O)Nc2nnc(CCCCc3ccc(NC(=O)Cc4ccccc4)nn3)s2)c1 [Compound 630] | 9 nM | 4 nM | 
O=C(Cc1ccccc1Cl)Nc1ccc(CCCCc2nnc(NC(=O)Cc3ccccc3Cl)s2)nn1 [Compound 565] | 13 nM | 5 nM | 
CN1CCC(Oc2cccc(CC(=O)Nc3nnc(CCCCc4ccc(NC(=O)Cc5ccccc5)nn4)s3)c2)CC1 [Compound 551] | 127 nM | 10 nM | 
CCOC(=O)NCc1cccc(CC(=O)Nc2ccc(CCCCc3nnc(NC(=O)C(C)c4ccccc4)s3)nn2)c1 (stereo not shown) [Compound 555] | 10 nM | 4 nM | 
CCOc1cccc(CC(=O)Nc2nnc(CCCCc3ccc(NC(=O)Cc4ccccc4)nn3)s2)c1 [Compound 488] | 1900 nM | 320 nM | 

From patent US20150004134A1, “TREATMENT OF CANCER WITH HETEROCYCLIC INHIBITORS OF GLUTAMINASE” (Calithera Biosciences, Inc., priority 2012, published 2015)
